Measurements as given in patent US20060069132A1, “Azolecarboxamide herbicides” (priority 2004, published 2006).

Legend:
[1] = system: pigweed; experiment: Test C pre-/postemergence herbicide test; type: in vivo, Amaranthus retroflexus; conditions: preemergence; for Plant response rating (0 = no effect, 100 = complete control), Pigweed: 125 g ai/ha
Outline: (§1)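 Pre/post spray; non-phytotoxic solvent + surfactant. Post-timing 1–4 leaves, 2–18 cm. Read-out: visual % control vs untreated, day 12–14, greenhouse.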

[2] = system: rice; experiment: Test C flooded paddy test; type: in vivo, Oryza sativa; conditions: for Plant response rating, Rice: 500 g ai/ha, visual rating after 12 to 14 days
Outline: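 Plants were grown to the 1- to 4-leaf stage (2–18 cm) and then treated postemergence, or grown to the 2-leaf stage for the flooded paddy test. They were held in a greenhouse for 12 to 14 days and then scored by eye against controls, where 0 is no effect and 100 is complete control.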

[3] = system: goosegrass; experiment: Test C pre-/postemergence herbicide test; type: in vivo, Eleusine indica; conditions: preemergence; for Plant response rating (0 = no effect, 100 = complete control), Goosegrass: 125 g ai/ha
Outline: as §1

[4] = system: barnyardgrass; experiment: Test C flooded paddy test; type: in vivo, Echinochloa crus-galli; conditions: for Plant response rating, Barnyardgrass: 500 g ai/ha, visual rating after 12 to 14 days
Outline: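 Postemergence sprays applied to plants 2 to 18 cm tall (1- to 4-leaf stage); paddy species grown to 2-leaf stage under flooding. After 12 to 14 days in greenhouse, visual rating versus untreated controls on 0–100 scale (0 no effect, 100 complete control).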

[5] = system: lambsquarters; experiment: Test C pre-/postemergence herbicide test; type: in vivo, Chenopodium album; conditions: preemergence; for Plant response rating (0 = no effect, 100 = complete control), Lambsquarters: 125 g ai/ha
Outline: as §1

[6] = system: giant foxtail; experiment: Test C pre-/postemergence herbicide test; type: in vivo, Setaria faberi; conditions: preemergence; for Plant response rating (0 = no effect, 100 = complete control), Foxtail, Giant: 125 g ai/ha
Outline: as §1

[7] = 500 g ai/ha, scale 0 to 100 (0 no effect, 100 complete control), visual, 12 to 14 days
[8] = 125 g ai/ha, scale 0 to 100 (0 no effect, 100 complete control)
[9] = 250 g ai/ha, scale of 0 to 100, 0 is no effect, 100 is complete control
[10] = scale 0 to 100 (0 no effect, 100 complete control)
[11] = 62 g ai/ha, scale 0 to 100 (0 no effect, 100 complete control)

Row | Structure (SMILES) | Plant response rating, Pigweed ([1]; 62 g ai/ha, scale 0 to 100) | Plant response rating (0 = no effect, 100 = complete control), Pigweed [1] | Plant response rating, Pigweed ([1]; 250 g ai/ha, scale 0-100) | Plant response rating, Pigweed [1, 7] | Rice plant response rating ([2]; 62 g ai/ha, scale 0 to 100) | Rice plant response rating [2, 8] | Rice plant response rating [2, 9] | Plant response rating, Rice [2, 10] | Plant response rating, Goosegrass ([3]; 62 g ai/ha, scale 0 to 100) | Plant response rating (0 = no effect, 100 = complete control), Goosegrass [3] | Plant response rating, Goosegrass ([3]; 250 g ai/ha, scale 0-100) | Plant response rating, Goosegrass [3, 7] | Barnyardgrass plant response rating [4, 11] | Barnyardgrass plant response rating [4, 8] | Barnyardgrass plant response rating [4, 9] | Plant response rating, Barnyardgrass [4, 10] | Plant response rating, Lambsquarters ([5]; 62 g ai/ha, scale 0 to 100) | Plant response rating (0 = no effect, 100 = complete control), Lambsquarters [5] | Plant response rating, Lambsquarters ([5]; 250 g ai/ha, scale 0-100) | Plant response rating, Lambsquarters [5, 7] | other results
1 | Cc1nn(C(C)(C)C)nc1C(=O)Nc1cccc(C(=O)N2CC=CC2)c1 [Compound 393] | 90 | 100 | 100 | 100 | 45 | 75 | 80 | 85 | 85 | 100 | 100 | 100 | 45 | 65 | 75 | 95 | 100 | 100 | 100 | 100 | Plant response rating, Foxtail, Giant ([6]; 62 g ai/ha, scale 0 to 100): 70; Plant response rating (0 = no effect, 100 = complete control), Foxtail, Giant [6]: 90; Plant response rating, Foxtail, Giant ([6]; 250 g ai/ha, scale 0-100): 95; Plant response rating, Foxtail, Giant [6, 7]: 100
2 | CCc1nn(C(C)(C)C)nc1C(=O)Nc1cccc(C(=S)N(C)C)c1 [Compound 395] | 100 | 100 | 100 | 100 | 70 | 70 | 70 | 75 | 95 | 95 | 100 | 100 | 75 | 80 | 80 | 90 | 100 | 100 | 100 | 100 | Plant response rating, Foxtail, Giant ([6]; 62 g ai/ha, scale 0 to 100): 95; Plant response rating (0 = no effect, 100 = complete control), Foxtail, Giant [6]: 100; Plant response rating, Foxtail, Giant ([6]; 250 g ai/ha, scale 0-100): 100; Plant response rating, Foxtail, Giant [6, 7]: 100
3 | CCc1nn(C(C)(C)C)nc1C(=S)Nc1cccc(C(=S)N(C)C)c1 [Compound 396] | 100 | 100 | 100 | 100 | 60 | 70 | 75 | 80 | 95 | 100 | 100 | 100 | 65 | 75 | 75 | 80 | 100 | 100 | 100 | 100 | Plant response rating, Foxtail, Giant ([6]; 62 g ai/ha, scale 0 to 100): 95; Plant response rating (0 = no effect, 100 = complete control), Foxtail, Giant [6]: 100; Plant response rating, Foxtail, Giant ([6]; 250 g ai/ha, scale 0-100): 100; Plant response rating, Foxtail, Giant [6, 7]: 100
